Laboratory results taken from ChEMBL document CHEMBL1201862, “PubChem BioAssay data set” (2004).
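Test compounds were applied to cells in 96-well plates for 48 hours at 5 doses. Here, GI50 denotes the concentration required for 50% inhibition of growth.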 Calls of active or inactive are those of the source. Cut-off read from the data, not from the text of the source: active = GI50 up to about 1.1 µM and inactive = higher.

How the values were obtained:
Assay in all cases: DTP human tumour cell line panel, 48 h
[1] = system: 786-0
[2] = system: A498
[3] = system: A549
[4] = system: ACHN
[5] = system: BT-549
[6] = system: CAKI-1
[7] = system: CCRF-CEM
[8] = system: COLO 205
[9] = system: DU-145
[10] = system: EKVX
[11] = system: HCC 2998
[12] = system: HCT-116
[13] = system: HCT-15
[14] = system: HOP-62
[15] = system: HOP-92
[16] = system: HT-29
[17] = system: Hs-578T
[18] = system: IGROV-1
[19] = system: K562
[20] = system: KM12
[21] = system: LOX IMVI
[22] = system: M14
[23] = system: MCF7
[24] = system: MDA-MB-231
[25] = system: MDA-MB-435
[26] = system: MDA-N
[27] = system: MOLT-4
[28] = system: Malme-3M
[29] = system: NCI-H226
[30] = system: NCI-H23
[31] = system: NCI-H460
[32] = system: NCI-H522
[33] = system: NCI/ADR-RES
[34] = system: OVCAR-3
[35] = system: OVCAR-4
[36] = system: OVCAR-5
[37] = system: OVCAR-8
[38] = system: PC-3
[39] = system: RPMI-8226
[40] = system: RXF 393
[41] = system: SF-268
[42] = system: SF-295
[43] = system: SF-539
[44] = system: SK-MEL-28
[45] = system: SK-MEL-2
[46] = system: SK-MEL-5
[47] = system: SK-OV-3
[48] = system: SN12C
[49] = system: SNB-19
[50] = system: SNB-75
[51] = system: SR
[52] = system: T47D
[53] = system: TK-10
[54] = system: U-251
[55] = system: UACC-257
[56] = system: UACC-62
[57] = system: HL-60
[58] = system: SW-620
[59] = system: UO-31

OC(C1CCC=NN1C(O)(C(F)(F)F)C(F)(F)F)(C(F)(F)F)C(F)(F)F (stereo not given)
GI50 [1]: > 10 µM (inactive) | GI50 [2]: > 10 µM (inactive) | GI50 [3]: > 10 µM (inactive) | GI50 [4]: > 10 µM (inactive) | GI50 [5]: > 10 µM (inactive) | GI50 [6]: > 10 µM (inactive) | GI50 [7]: > 10 µM (inactive) | GI50 [8]: > 10 µM (inactive) | GI50 [9]: > 10 µM (inactive) | GI50 [10]: > 10 µM (inactive) | GI50 [11]: > 10 µM (inactive) | GI50 [12]: > 10 µM (inactive) | GI50 [13]: > 10 µM | GI50 [14]: > 10 µM (inactive) | GI50 [15]: > 10 µM (inactive) | GI50 [16]: > 10 µM (inactive) | GI50 [17]: > 10 µM (inactive) | GI50 [18]: > 10 µM (inactive) | GI50 [19]: > 10 µM (inactive) | GI50 [20]: > 10 µM (inactive) | GI50 [21]: > 10 µM (inactive) | GI50 [22]: > 10 µM (inactive) | GI50 [23]: > 10 µM (inactive) | GI50 [24]: > 10 µM (inactive) | GI50 [25]: > 10 µM (inactive) | GI50 [26]: > 10 µM (inactive) | GI50 [27]: > 10 µM (inactive) | GI50 [28]: > 10 µM (inactive) | GI50 [29]: > 10 µM (inactive) | GI50 [30]: > 10 µM (inactive) | GI50 [31]: > 10 µM (inactive) | GI50 [32]: > 10 µM (inactive) | GI50 [33]: > 10 µM (inactive) | GI50 [34]: > 10 µM (inactive) | GI50 [35]: > 10 µM (inactive) | GI50 [36]: > 10 µM (inactive) | GI50 [37]: > 10 µM (inactive) | GI50 [38]: > 10 µM (inactive) | GI50 [39]: > 10 µM (inactive) | GI50 [40]: > 10 µM (inactive) | GI50 [41]: > 10 µM (inactive) | GI50 [42]: > 10 µM (inactive) | GI50 [43]: > 10 µM (inactive) | GI50 [44]: > 10 µM (inactive) | GI50 [45]: > 10 µM (inactive) | GI50 [46]: > 10 µM (inactive) | GI50 [47]: > 10 µM (inactive) | GI50 [48]: > 10 µM (inactive) | GI50 [49]: > 10 µM (inactive) | GI50 [50]: > 10 µM (inactive) | GI50 [51]: > 10 µM (inactive) | GI50 [52]: > 10 µM (inactive) | GI50 [53]: > 10 µM (inactive) | GI50 [54]: > 10 µM (inactive) | GI50 [55]: > 10 µM (inactive) | GI50 [56]: > 10 µM (inactive)

COc1ccc2c(CC(=O)O)cc(=O)oc2c1
GI50 [1]: > 100 µM (inactive) | GI50 [2]: > 100 µM (inactive) | GI50 [3]: > 100 µM (inactive) | GI50 [4]: > 100 µM (inactive) | GI50 [5]: > 100 µM (inactive) | GI50 [6]: > 100 µM (inactive) | GI50 [7]: > 100 µM (inactive) | GI50 [8]: > 100 µM (inactive) | GI50 [9]: > 100 µM (inactive) | GI50 [10]: > 100 µM (inactive) | GI50 [11]: > 100 µM (inactive) | GI50 [12]: > 100 µM (inactive) | GI50 [13]: > 100 µM | GI50 [57]: > 100 µM (inactive) | GI50 [14]: > 100 µM (inactive) | GI50 [15]: 86.1 µM (inactive) | GI50 [16]: > 100 µM (inactive) | GI50 [17]: > 100 µM (inactive) | GI50 [18]: > 100 µM (inactive) | GI50 [19]: > 100 µM (inactive) | GI50 [20]: > 100 µM (inactive) | GI50 [21]: > 100 µM (inactive) | GI50 [22]: > 100 µM (inactive) | GI50 [23]: > 100 µM (inactive) | GI50 [24]: > 100 µM (inactive) | GI50 [25]: > 100 µM (inactive) | GI50 [26]: > 100 µM (inactive) | GI50 [27]: > 100 µM (inactive) | GI50 [28]: 54.8 µM (inactive) | GI50 [29]: > 100 µM (inactive) | GI50 [30]: > 100 µM (inactive) | GI50 [31]: > 100 µM (inactive) | GI50 [32]: > 100 µM (inactive) | GI50 [33]: > 100 µM (inactive) | GI50 [34]: > 100 µM (inactive) | GI50 [35]: > 100 µM (inactive) | GI50 [36]: > 100 µM (inactive) | GI50 [37]: > 100 µM (inactive) | GI50 [38]: > 100 µM (inactive) | GI50 [39]: > 100 µM (inactive) | GI50 [40]: > 100 µM (inactive) | GI50 [41]: > 100 µM (inactive) | GI50 [42]: > 100 µM (inactive) | GI50 [43]: > 100 µM (inactive) | GI50 [44]: > 100 µM (inactive) | GI50 [46]: > 100 µM (inactive) | GI50 [48]: > 100 µM (inactive) | GI50 [49]: > 100 µM (inactive) | GI50 [51]: > 100 µM (inactive) | GI50 [58]: > 100 µM (inactive) | GI50 [52]: > 100 µM (inactive) | GI50 [53]: > 100 µM (inactive) | GI50 [54]: > 100 µM (inactive) | GI50 [55]: > 100 µM (inactive) | GI50 [56]: > 100 µM (inactive) | GI50 [59]: > 100 µM (inactive)

Cc1c(C(=O)NNc2ccccc2)n2c(S)nnc2c2ccccc12
GI50 [1]: > 100 µM (inactive) | GI50 [2]: > 100 µM (inactive) | GI50 [3]: > 100 µM (inactive) | GI50 [4]: > 100 µM (inactive) | GI50 [5]: 97.3 µM (inactive) | GI50 [6]: > 100 µM (inactive) | GI50 [7]: > 100 µM (inactive) | GI50 [8]: > 100 µM (inactive) | GI50 [9]: > 100 µM (inactive) | GI50 [10]: > 100 µM (inactive) | GI50 [11]: 71.8 µM (inactive) | GI50 [12]: > 100 µM (inactive) | GI50 [13]: > 100 µM | GI50 [57]: > 100 µM (inactive) | GI50 [14]: > 100 µM (inactive) | GI50 [15]: > 100 µM (inactive) | GI50 [16]: > 100 µM (inactive) | GI50 [17]: > 100 µM (inactive) | GI50 [18]: > 100 µM (inactive) | GI50 [19]: > 100 µM (inactive) | GI50 [20]: > 100 µM (inactive) | GI50 [21]: > 100 µM (inactive) | GI50 [22]: > 100 µM (inactive) | GI50 [23]: > 100 µM (inactive) | GI50 [24]: > 100 µM (inactive) | GI50 [25]: > 100 µM (inactive) | GI50 [26]: > 100 µM (inactive) | GI50 [27]: 83.2 µM (inactive) | GI50 [29]: > 100 µM (inactive) | GI50 [30]: > 100 µM (inactive) | GI50 [31]: > 100 µM (inactive) | GI50 [32]: > 100 µM (inactive) | GI50 [33]: > 100 µM (inactive) | GI50 [34]: > 100 µM (inactive) | GI50 [35]: > 100 µM (inactive) | GI50 [36]: > 100 µM (inactive) | GI50 [37]: > 100 µM (inactive) | GI50 [38]: > 100 µM (inactive) | GI50 [39]: 58.2 µM (inactive) | GI50 [40]: 82.2 µM (inactive) | GI50 [41]: > 100 µM (inactive) | GI50 [42]: 54.6 µM (inactive) | GI50 [43]: > 100 µM (inactive) | GI50 [44]: 86.7 µM (inactive) | GI50 [45]: > 100 µM (inactive) | GI50 [46]: > 100 µM (inactive) | GI50 [47]: > 100 µM (inactive) | GI50 [48]: > 100 µM (inactive) | GI50 [49]: > 100 µM (inactive) | GI50 [50]: > 100 µM (inactive) | GI50 [51]: 74.3 µM (inactive) | GI50 [58]: > 100 µM (inactive) | GI50 [52]: 40.5 µM (inactive) | GI50 [53]: > 100 µM (inactive) | GI50 [54]: > 100 µM (inactive) | GI50 [55]: > 100 µM (inactive) | GI50 [56]: > 100 µM (inactive) | GI50 [59]: 73.1 µM (inactive)
